Measurements as given in BindingDB's records for patent US9457039 (Merck Sharp & Dohme Corp, 2016).

Target: T1, Genome polyprotein [2420-3010] (HCV, UniProt P26663)
T1 construct: 2420-3010
Test: Inhibition Assay
Conditions: pH 7.3; 25 °C
Method: To measure inhibition of the enzymatic activity of the HCV NS5B RNA-dependent RNA polymerase by the nucleoside triphosphate compounds of the present invention, a radiolabeled nucleotide incorporation assay was used. […] The assay was then terminated by the addition of 500 mM EDTA (50 μL). The reaction mixture was transferred to a Millipore DE81 filter plate and the incorporation of labeled CTP is determined using Packard TopCount.

T1 sequence (P26663 2420-3010): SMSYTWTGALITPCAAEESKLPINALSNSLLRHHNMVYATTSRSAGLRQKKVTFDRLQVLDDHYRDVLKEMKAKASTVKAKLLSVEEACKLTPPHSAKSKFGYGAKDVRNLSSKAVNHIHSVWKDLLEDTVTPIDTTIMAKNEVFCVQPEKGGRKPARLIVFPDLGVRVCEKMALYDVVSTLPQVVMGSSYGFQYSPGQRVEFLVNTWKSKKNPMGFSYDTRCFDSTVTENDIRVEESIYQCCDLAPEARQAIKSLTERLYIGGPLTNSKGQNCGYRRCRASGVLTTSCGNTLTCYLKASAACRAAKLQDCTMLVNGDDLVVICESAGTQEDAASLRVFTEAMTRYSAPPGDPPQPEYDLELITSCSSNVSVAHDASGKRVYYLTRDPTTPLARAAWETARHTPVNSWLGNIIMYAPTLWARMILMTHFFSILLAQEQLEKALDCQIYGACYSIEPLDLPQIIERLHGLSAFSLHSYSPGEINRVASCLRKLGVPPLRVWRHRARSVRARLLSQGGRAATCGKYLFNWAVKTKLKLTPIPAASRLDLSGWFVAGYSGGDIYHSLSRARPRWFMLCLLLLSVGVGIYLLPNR

| Compound | IC50 [µM] |
| --- | --- |
| C[C@@]1(N=[N+]=[N-])[C@H](O)[C@@H](COP(=O)(O)OP(=O)(O)OP(=O)(O)O)O[C@H]1c1cnc2c(N)ncnn12 [US9457039, 22] | 0.93 |
| C[C@@]1(N)[C@H](O)[C@@H](COP(=O)(O)OP(=O)(O)OP(=O)(O)O)O[C@H]1c1cnc2c(N)ncnn12 [US9457039, 23] | 6.7 |
| C[C@@]1(N)[C@H](O)[C@@H](COP(=O)(O)OP(=O)(O)OP(=O)(O)O)O[C@H]1c1ccc2c(N)ncnn12 [US9457039, 24] | 1.1 |
| C[C@@]1(N)[C@H](O)[C@@H](COP(=O)(O)OP(=O)(O)OP(=O)(O)O)O[C@H]1c1cnn2c(N)ncnc12 [US9457039, 25] | 51 |
